Assay results taken from patent US6440406B1, “Attractant for monitoring and control of adult scarabs” (The United States of America as represented by the …, priority 1997, dated 2002).

Experiments:
Assay type in all cases: in vivo
Cotinis nitida = assay: Field trap capture, College Station, TX; settings: number of incidents over the study where more than one target insect was trapped (male and female, 4 repetitions)
Protocol: (§1) The mixture of all five volatile components, prepared as described in Lopez et al. (U.S. patent application Ser. No. 09/166,655, filed Oct. 5, 1998) was evaluated as an attractant for scarabs. Evaluations using the mixture in traps were conducted at various sites at Dallas, Tex., adjacent to corn or cotton fields in an agricultural area SW of College Station, Tex., and in different habitats at various locations in Mexico. The primary trap used was the Trece Catch Can with a yellow top and a green catch container obtained from Trece, Inc., Salinas, Calif. At College Station only, wire cone traps originally designed to capture noctuid moths (Hartstack et al., Jour. Econ. Entomol., 72:319-322, 1979) were also used in the evaluations. The traps were operated about 1 meter above ground level and were spaced at different distances based on the amount of space available in which to conduct the evaluations. Treatments were assigned to traps in trap lines either randomly or rotated every time the traps were checked to minimize trap location effects. Attractants for evaluation were dispensed primarily from sintered polyethylene to which the attractant was added until saturated. The sintered polyethylene was placed in various plastic containers to facilitate placing on the traps for evaluation. At College Station only, cotton dental wicks were used to dispense the attractants for evaluation by applying the attractants mixed with methylene chloride as a solvent. Traps were checked as appropriate based on the number of numbers of scarabs trapped.
(§2) The volatile components were evaluated individually and in combination for efficacy for capturing scarabs. The evaluations were conducted as described in Example 1 near College Station, Tex., and Dallas, Tex., except that the volatile components were assayed individually as well.
(§3) In the College Station, Tex., data, the numbers represent the frequencies or number of incidents, over the course of the study, where more than one target insect was trapped (male and female, 4 repetitions). The Dallas, Tex., data represents the numbers of males/females captured. Abbreviations for the active agents tested are as follows: Mix M=five component mixture as described in Example 1, MMB=methyl-2-methoxybenzoate, MS=methyl salicylate, PA=phenylacetaldehyde, PE=2-phenylethanol, PEG=Japanese Beetle Lure, and SL=limonene.

Euphoria sedpulcralis = assay: Field trap capture, College Station, TX; settings: number of incidents over the study where more than one target insect was trapped (male and female, 4 repetitions)
Protocol: as §1, §2, §3

Phyllophaga congrua = assay: Field trap capture, Dallas, TX; settings: baited traps
Protocol: as §1, §2, §3

Phyllophaga crinita = assay: Field trap capture, Dallas, TX; settings: baited traps
Protocol: as §1, §2, §3

Phyllophaga crassissima = assay: Field trap capture, Dallas, TX; settings: baited traps
Protocol: as §1, §2, §3

COC(=O)c1ccccc1O [MS, methyl salicylate]
Frequencies of trapping > 1 beetle (Cotinis nitida): 0 | Frequencies of trapping > 1 beetle (Euphoria sedpulcralis): 0 | no. females captured (Phyllophaga congrua): 0 | no. males captured (Phyllophaga congrua): 4 | no. females captured (Phyllophaga crinita): 0 | no. males captured (Phyllophaga crinita): 23 | no. females captured (Phyllophaga crassissima): 10 | no. males captured (Phyllophaga crassissima): 6

CC=Cc1ccc(OC)cc1 [Anethol, reference compound]
Frequencies of trapping > 1 beetle (Cotinis nitida): 1 | Frequencies of trapping > 1 beetle (Euphoria sedpulcralis): 0 | no. females captured (Phyllophaga congrua): 3 | no. males captured (Phyllophaga congrua): 0 | no. females captured (Phyllophaga crinita): 0 | no. males captured (Phyllophaga crinita): 14 | no. females captured (Phyllophaga crassissima): 56 | no. males captured (Phyllophaga crassissima): 79

OCCc1ccccc1 [PE, 2-phenylethanol]
Frequencies of trapping > 1 beetle (Cotinis nitida): 2 | Frequencies of trapping > 1 beetle (Euphoria sedpulcralis): 0 | no. females captured (Phyllophaga congrua): 2 | no. males captured (Phyllophaga congrua): 5 | no. females captured (Phyllophaga crinita): 1 | no. males captured (Phyllophaga crinita): 11 | no. females captured (Phyllophaga crassissima): 5 | no. males captured (Phyllophaga crassissima): 8

COC(=O)c1ccccc1OC [MMB, methyl-2-methoxybenzoate]
Frequencies of trapping > 1 beetle (Cotinis nitida): 1 | Frequencies of trapping > 1 beetle (Euphoria sedpulcralis): 0 | no. females captured (Phyllophaga congrua): 3 | no. males captured (Phyllophaga congrua): 0 | no. females captured (Phyllophaga crinita): 7 | no. males captured (Phyllophaga crinita): 8627 | no. females captured (Phyllophaga crassissima): 11 | no. males captured (Phyllophaga crassissima): 16

C=C(C)[C@H]1CC=C(C)CC1 [SL, limonene]
Frequencies of trapping > 1 beetle (Cotinis nitida): 0 | Frequencies of trapping > 1 beetle (Euphoria sedpulcralis): 0 | no. females captured (Phyllophaga congrua): 2 | no. males captured (Phyllophaga congrua): 1 | no. females captured (Phyllophaga crinita): 3 | no. males captured (Phyllophaga crinita): 32 | no. females captured (Phyllophaga crassissima): 3 | no. males captured (Phyllophaga crassissima): 4

O=CCc1ccccc1 [PA, phenylacetaldehyde]
Frequencies of trapping > 1 beetle (Cotinis nitida): 13 | Frequencies of trapping > 1 beetle (Euphoria sedpulcralis): 1 | no. females captured (Phyllophaga congrua): 1 | no. males captured (Phyllophaga congrua): 5 | no. females captured (Phyllophaga crinita): 1 | no. males captured (Phyllophaga crinita): 16 | no. females captured (Phyllophaga crassissima): 3 | no. males captured (Phyllophaga crassissima): 9
